Results taken from PubChem BioAssay (NCI).
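Protocol summary: plate cells (96-well), add compound at 5 concentrations, incubate 48 h, interpolate endpoints linearly. TGI marks complete inhibition of growth.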

Key:
Experiment in all cases: inhibition of tumour cell growth, NCI panel, 48 h
UACC-62 melanoma = system: UACC-62 melanoma
DU-145 prostate = system: DU-145 prostate
SF-539 CNS = system: SF-539 CNS
SF-295 CNS = system: SF-295 CNS
MOLT-4 leukemia = system: MOLT-4 leukemia
UACC-257 melanoma = system: UACC-257 melanoma
HT29 colon = system: HT29 colon
HL-60(TB) leukemia = system: HL-60(TB) leukemia
UO-31 renal = system: UO-31 renal
MCF7 breast = system: MCF7 breast
SN12C renal = system: SN12C renal
SK-MEL-5 melanoma = system: SK-MEL-5 melanoma
K-562 leukemia = system: K-562 leukemia
IGROV1 ovarian = system: IGROV1 ovarian
A549 NSCLC = system: A549 NSCLC
OVCAR-3 ovarian = system: OVCAR-3 ovarian
OVCAR-5 ovarian = system: OVCAR-5 ovarian
TK-10 renal = system: TK-10 renal
COLO 205 colon = system: COLO 205 colon
SF-268 CNS = system: SF-268 CNS
NCI/ADR-RES ovarian = system: NCI/ADR-RES ovarian
BT-549 breast = system: BT-549 breast
NCI-H522 lung = system: NCI-H522 lung
NCI-H226 lung = system: NCI-H226 lung
LOX IMVI melanoma = system: LOX IMVI melanoma
U251 CNS = system: U251 CNS
SW-620 colon = system: SW-620 colon
CCRF-CEM leukemia = system: CCRF-CEM leukemia
SK-MEL-28 melanoma = system: SK-MEL-28 melanoma
SR leukemia = system: SR leukemia
RXF 393 renal = system: RXF 393 renal
MDA-MB-435 = system: MDA-MB-435
786-0 renal = system: 786-0 renal
PC-3 prostate = system: PC-3 prostate
NCI-H460 lung = system: NCI-H460 lung
M14 melanoma = system: M14 melanoma
SK-OV-3 ovarian = system: SK-OV-3 ovarian
HCT-116 colon = system: HCT-116 colon
MDA-MB-231 breast = system: MDA-MB-231 breast
A498 renal = system: A498 renal
HCC-2998 colon = system: HCC-2998 colon
SNB-19 CNS = system: SNB-19 CNS
EKVX NSCLC = system: EKVX NSCLC
NCI-H23 lung = system: NCI-H23 lung
RPMI-8226 leukemia = system: RPMI-8226 leukemia
HOP-92 NSCLC = system: HOP-92 NSCLC
HOP-62 NSCLC = system: HOP-62 NSCLC
T-47D breast = system: T-47D breast
OVCAR-4 ovarian = system: OVCAR-4 ovarian
MALME-3M melanoma = system: MALME-3M melanoma
OVCAR-8 ovarian = system: OVCAR-8 ovarian
ACHN renal = system: ACHN renal
KM12 colon = system: KM12 colon
HCT-15 colon = system: HCT-15 colon
HS 578T breast = system: HS 578T breast
CAKI-1 renal = system: CAKI-1 renal
SK-MEL-2 melanoma = system: SK-MEL-2 melanoma
MDA-N = system: MDA-N
SNB-75 CNS = system: SNB-75 CNS

NCCCNc1ccc2c(c1)[n+]([O-])c1ccccc1[n+]2[O-]
TGI (UACC-62 melanoma): 49.2 µM
TGI (DU-145 prostate): 70.8 µM
TGI (SF-539 CNS): 53.9 µM
TGI (SF-295 CNS): > 100 µM
TGI (MOLT-4 leukemia): 67.2 µM
TGI (UACC-257 melanoma): 83.2 µM
TGI (HT29 colon): > 100 µM
TGI (HL-60(TB) leukemia): 57.6 µM
TGI (UO-31 renal): > 100 µM
TGI (MCF7 breast): > 100 µM
TGI (SN12C renal): > 100 µM
TGI (SK-MEL-5 melanoma): 31.8 µM
TGI (K-562 leukemia): > 100 µM
TGI (IGROV1 ovarian): 41.5 µM
TGI (A549 NSCLC): > 100 µM
TGI (OVCAR-3 ovarian): 50.5 µM
TGI (OVCAR-5 ovarian): > 100 µM
TGI (TK-10 renal): > 100 µM
TGI (COLO 205 colon): 45.2 µM
TGI (SF-268 CNS): > 100 µM
TGI (NCI/ADR-RES ovarian): > 100 µM
TGI (BT-549 breast): 64 µM
TGI (NCI-H522 lung): 30.7 µM
TGI (NCI-H226 lung): 45.5 µM
TGI (LOX IMVI melanoma): 94.3 µM
TGI (U251 CNS): 91.9 µM
TGI (SW-620 colon): > 100 µM
TGI (CCRF-CEM leukemia): 91.4 µM
TGI (SK-MEL-28 melanoma): > 100 µM
TGI (SR leukemia): 61.4 µM
TGI (RXF 393 renal): 55.9 µM
TGI (MDA-MB-435): > 100 µM
TGI (786-0 renal): > 100 µM
TGI (PC-3 prostate): > 100 µM
TGI (NCI-H460 lung): 53.6 µM
TGI (M14 melanoma): > 100 µM
TGI (SK-OV-3 ovarian): 50.4 µM
TGI (HCT-116 colon): 63.7 µM
TGI (MDA-MB-231 breast): 57.6 µM
TGI (A498 renal): 47.8 µM
TGI (HCC-2998 colon): > 100 µM
TGI (SNB-19 CNS): > 100 µM
TGI (EKVX NSCLC): > 100 µM
TGI (NCI-H23 lung): 97.5 µM
TGI (RPMI-8226 leukemia): 54.4 µM
TGI (HOP-92 NSCLC): 62.6 µM
TGI (HOP-62 NSCLC): 93.5 µM
TGI (T-47D breast): 69.6 µM
TGI (OVCAR-4 ovarian): 92.6 µM
TGI (MALME-3M melanoma): 46.6 µM
TGI (OVCAR-8 ovarian): > 100 µM
TGI (ACHN renal): 77.7 µM
TGI (KM12 colon): 80.3 µM
TGI (HCT-15 colon): 66.3 µM
TGI (HS 578T breast): 60 µM

Cc1nnc(Nc2ccc(Cl)cc2)o1
TGI (UACC-62 melanoma): > 10 µM
TGI (DU-145 prostate): > 10 µM
TGI (SF-539 CNS): > 10 µM
TGI (SF-295 CNS): > 10 µM
TGI (UACC-257 melanoma): > 10 µM
TGI (HT29 colon): > 10 µM
TGI (HL-60(TB) leukemia): > 10 µM
TGI (UO-31 renal): > 10 µM
TGI (MCF7 breast): > 10 µM
TGI (SN12C renal): > 10 µM
TGI (SK-MEL-5 melanoma): > 10 µM
TGI (K-562 leukemia): > 10 µM
TGI (IGROV1 ovarian): > 10 µM
TGI (A549 NSCLC): > 10 µM
TGI (OVCAR-3 ovarian): > 10 µM
TGI (TK-10 renal): > 10 µM
TGI (CAKI-1 renal): > 10 µM
TGI (COLO 205 colon): > 10 µM
TGI (SF-268 CNS): > 10 µM
TGI (NCI/ADR-RES ovarian): > 10 µM
TGI (NCI-H522 lung): > 10 µM
TGI (NCI-H226 lung): > 10 µM
TGI (LOX IMVI melanoma): > 10 µM
TGI (U251 CNS): > 10 µM
TGI (SW-620 colon): > 10 µM
TGI (CCRF-CEM leukemia): > 10 µM
TGI (SK-MEL-28 melanoma): > 10 µM
TGI (RXF 393 renal): > 10 µM
TGI (MDA-MB-435): > 10 µM
TGI (786-0 renal): > 10 µM
TGI (PC-3 prostate): > 10 µM
TGI (NCI-H460 lung): > 10 µM
TGI (M14 melanoma): > 10 µM
TGI (SK-OV-3 ovarian): > 10 µM
TGI (HCT-116 colon): > 10 µM
TGI (MDA-MB-231 breast): > 10 µM
TGI (A498 renal): > 10 µM
TGI (SK-MEL-2 melanoma): > 10 µM
TGI (HCC-2998 colon): > 10 µM
TGI (SNB-19 CNS): > 10 µM
TGI (EKVX NSCLC): > 10 µM
TGI (NCI-H23 lung): > 10 µM
TGI (MDA-N): > 10 µM
TGI (HOP-62 NSCLC): > 10 µM
TGI (T-47D breast): > 10 µM
TGI (SNB-75 CNS): > 10 µM
TGI (OVCAR-4 ovarian): > 10 µM
TGI (MALME-3M melanoma): > 10 µM
TGI (OVCAR-8 ovarian): > 10 µM
TGI (ACHN renal): > 10 µM
TGI (KM12 colon): > 10 µM
TGI (HCT-15 colon): > 10 µM
TGI (HS 578T breast): > 10 µM
